Assay results as given in US10905783B2, “Glucosamine and derivatives thereof in imaging” (priority 2015, dated 2021).

Assays:
[1] = cited from earlier work
[2] = test system: 4T1 tumor; assay: In vivo CEST MRI of 4T1 breast tumors in mice; set-up: species or system mouse
Experimental: 4T1 mouse mammary tumor cell lines were obtained from ATCC. Cells were cultured in high glucose DMEM supplemented 5% FBS, 5% NCS, NEAA and antibiotics (100 units/ml penicillin and 100 μg/ml streptomycin) at 37° C. in a humidified atmosphere containing 5% CO2.
BALB/C female mice were purchased and kept in the breeding facility of Life Science School, Tel Aviv University. To induce orthotropic xenograph tumors in the mice. 4T1 cells were injected into the lower left mammary gland of 8-week-old (17-22 gram) animals (10^6 cells in 100 μL saline). The tumors were allowed to grow for 10-14 days, reaching an average tumor volume of 5 mm^3. All experiments with animal models were carried out in compliance with the principles of the National Research Council (NRC) and were approved by the institutional animal care and use committee (IACUC) (#M-15-057).
A Bruker 7 Tesla (T) Biospec scanner with 30 cm bore size was used to scan implanted xenograph mammary tumors of mice before and after administration (i.v., i.p. or p.o.) of glucosamine or its derivatives (the glucose analogues were dissolved in saline, pH 7.4). 4T1 or MCF7 tumor-bearing mice, with an average tumor volume of 2-7 mm^3, were fasted overnight with water access, anesthetized with isoflurane (1-2%) and scanned (without surface coil). Their temperature was maintained at 37° C.
At first, T2 RARE anatomical images (RARE factor-8, TR-3000 ms, TE-11.7 ms) were acquired to identify the slice selection with maximum tumor size. The CEST images were generated as follows: a series of T2 RARE images (RARE factor-1, TR-3000 ms, TE-11.7 ms) were collected from a single 1 mm coronal slice of the abdominal area (acquisition matrix before zero filling 128×64, field of view of 40×40 mm^2) after a 2 s presaturation pulse of B1=2.5 μT (106 Hz) at the hydroxyl proton frequency offset of ±1.2 ppm from the water signal. The CEST images were acquired before and after glucosamine or its derivatives administration in order to identify the baseline. The acquisition continued for more than an hour after treatment.
The mean intensities in the selected region of interest (ROI) of the tumor were used for the % CEST plot.

[3] = test system: TSA and B16 cancer models; conditions: cited from earlier work

For O=CC[C@@H](O)[C@H](O)[C@H](O)CO [2-DG, 2-deoxy-D-glucose], the toxic dose ([1]; rats) is given as 3000 mg/kg.
With O=C[C@H](O)[C@@H](O)[C@H](O)[C@H](O)CO [D-glucose] the “time after administration at which the CEST signal decreased dramatically” value ([2]; D-glucose 1000 mg/kg per os, same animal as glucosamine) was 30 to 40 min, the “duration of the CEST signal” value ([2]; PO, 4T1 model) was “less than an hour” and the CEST signal ([2]; oral doses of less than 1 g/kg) was “no significant CEST signal”. The “CEST signal 60 minutes after administering” value ([2]; same animal, glucosamine at half the dosage of D-glucose) was “no CEST signal was observed”.
In the case of O=C[C@H](F)[C@@H](O)[C@H](O)[C@H](O)CO [FDG, 2-fluoro-deoxy-D-glucose], the toxicity ([1]; high concentrations) is given as “toxic at high concentrations”.
For CC(=O)N[C@H]1C(O)O[C@H](CO)[C@@H](O)[C@@H]1O (stereo partly drawn) [N-Acetyl-D-glucosamine], the CEST contrast [3] is given as “increase CEST contrast”.
